pIC50: −log10 of the molar value. “And” between values parts separate entries of the source, which are not always exact repeats. Equal entries are not always repeated. Where two headings read alike, the source gives them in different places.
Molecular target: T1, hURAT1 (Homo sapiens, UniProt Q96S37)
T1 sequence (Q96S37 1-553): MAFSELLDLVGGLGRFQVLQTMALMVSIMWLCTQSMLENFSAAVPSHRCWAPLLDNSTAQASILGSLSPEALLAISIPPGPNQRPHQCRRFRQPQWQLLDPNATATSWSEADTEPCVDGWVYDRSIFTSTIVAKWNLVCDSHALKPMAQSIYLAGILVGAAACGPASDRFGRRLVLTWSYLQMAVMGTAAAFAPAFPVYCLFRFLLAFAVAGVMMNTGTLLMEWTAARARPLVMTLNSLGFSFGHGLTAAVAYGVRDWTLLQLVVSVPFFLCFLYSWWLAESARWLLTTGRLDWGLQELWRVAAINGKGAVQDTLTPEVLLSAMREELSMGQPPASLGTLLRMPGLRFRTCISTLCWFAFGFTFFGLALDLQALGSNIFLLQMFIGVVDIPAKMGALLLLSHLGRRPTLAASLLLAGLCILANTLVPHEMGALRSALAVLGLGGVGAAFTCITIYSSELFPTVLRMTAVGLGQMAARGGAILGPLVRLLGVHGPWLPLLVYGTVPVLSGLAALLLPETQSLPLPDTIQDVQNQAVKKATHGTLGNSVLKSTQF
Experiment: Inhibitory activity against URAT1: 14C-labelled uric acid uptake in HEK-293t cells stably expressing hURAT1
Type: cell-based
Conditions: for IC50: HEK-293t/hURAT1 cells, 14C uric acid uptake, 5 minutes at room temperature, Ref Cpd 2, 83, Ref Cpd 3 and 129 are averages of head-to-head tests, read-out: IC50 (nM) of hURAT1 inhibitory activity
Description: • Test example: Determination of the inhibitory activity of compounds according to the present invention against URAT1 Experimental Materials • FBS (Invitrogen, Cat. No. 10099141) • Trypsin (Invitrogen, Cat. No. 25200056) • DPBS (Invitrogen, Cat. No. 14190250) • DMEM (Invitrogen, Cat. No. 10564) • Penicillin-Streptomycin (Invitrogen, Cat. No. 15070-063) • TransIT-293 Transfection Reagent (MIRUS BIO, Cat. No. MIR2706) • Opti-MEM® I Reduced Serum Medium (Invitrogen, Cat. No. 31985-070) • URAT1 plasmid (Genecopoeia, Cat. No. EX-T4563-M03) • Uric acid [8-14C] (ARC, Cat. No. ARC0513-250UCI) • Ultima Gold™ XR (PerkinElmer, Cat. No. 6013111) • Benzbromarone (J&K Scientific, Cat. No. 3562-84-3) • D-Gluconic acid sodium salt (Aladdin, Cat. No. 527-07-1) • Potassium D-gluconate (Aladdin, Cat. No. 299-27-4) • Calcium gluconate (Aladdin, Cat. No. 299-28-5) • DMSO (Sigma, Cat. No. D2650) • Tube, 15 ml (Greiner, Cat. No. 07030115) • Tube, 50 ml (BD Falcon, Cat. No. 352098) • Poly-D-lysine 96-well microplates (BD, Cat. No. 356461) • Isoplate-96 Microplate (PERKIN ELMER, Cat. No. 6005040) Experimental Method:
Cell Culture: • 1. The HEK-293t cells that expressed the stable expression of hURAT1 were cultured in DMEM medium containing 10% FBS and 1% P/S, and incubated overnight in the incubator at 37° C. under 5% carbon dioxide. • 2. the culture medium was removed, and the cells were washed with PBS, and then the pancreatin was added to digest for 2 minutes. After the cell is separated from the dish, 10 ml of medium was added to terminate digestion. • 3. The cells were placed into a centrifugal apparatus and centrifugated for 2 minutes at the speed of 1000 rpm, followed by the addition of fresh 10 mL medium to resuspend the cells, and calculate the number of cells. The number of cells was adjusted to 4×10^5 cells/mL. • 4. the above counted cells were inoculated into the 96-well plate at 100 μL/well. • 5. The 96-well plate with inoculated cells was placed in a 37° C. cell incubator and cultivated overnight.
The uric acid absorption experiment labeled with isotope C14: • 1. 5 mL of Cl-free HBSS buffer was added to a 15 mL centrifuge tube, followed by the addition of the uric acid labeled with C14, and the concentration of uric acid was 2 uCi/ml. • 2. The medium in the 96-well plate that was previously cultivated overnight was removed, and the plate was washed three times with […] preheated Cl-free HBSS buffer. • 3. The buffer in the well-washed 96-well plate was removed. • 4. […] Cl-free HBSS buffer containing C-14 labeled uric acid was added into each well in the cleaned 96-well plate, and then DMSO solution of the compound that needs to be tested was added. • 5. After the 96-well plate stood for 5 minutes at room temperature, all the liquid in it was removed. • 6. […] precooled Cl-free HBSS buffer was added to wash the plate three times. • 7. After the remained liquid in the plates was completely removed, 50 μL cell lysis was added to each well, and the plate was agitated on the mixer at a speed of 600 revolutions/min for 10 minutes. • 8. After 50 μL Ultima Gold™ XR scitillation cocktail fluid was added, the plate was continued to agitate for 10 minutes. The well-agitated plate was sealed, and the data was read on MicroBeta Trilux. • 9. The test compound was dissolved in DMSO, and DMSO at the same concentration was added to the HEK293/hURAT1 cell well without test compounds. […] The radiation value obtained from the well containing DMSO is considered to be 100% of the cell uptake. The IC50 values of compounds can be calculated by the inhibition rate at different concentrations.
Among them, reference compound 1 was synthesized according to the method described in patent WO 2011/159839 A2. Reference compound 2 and reference compound 3 were synthesized according to the method described in patent WO 2014/183555 A1, and they were head-to-head tested with compounds 83 and 129 respectively under the same conditions.

IC50 [nM] | Compound | also measured
36 | 2-(6-(2-fluoropyridin-4-yl)-quinolin-4-ylthio)-2-ethylbutanoic acid [Compound 118] | –
1400 | 2-(6-(3-fluoropyridin-4-yl)-quinolin-4-ylthio)-2-ethylbutanoic acid [Compound 123] | –
486 | CC(C)(Sc1ccnc2ccc(C3CC3)cc12)C(=O)O [Compound 1, 2-(6-cyclopropylquinolin-4-ylthio)-2-methylpropanoic acid] | –
514 | CC(C)(Sc1ccnc2ccc(-c3cccnc3)cc12)C(=O)O [Compound 3, 2-(6-(pyridin-3-yl)quinolin-4-ylthio)-2-methylpropanoic acid] | –
127 | CC(C)(Sc1ccnc2ccc(-c3ccncc3)cc12)C(=O)O [Compound 4, 2-(6-(pyridin-4-yl)quinolin-4-ylthio)-2-methylpropanoic acid] | –
472 | COc1ccccc1-c1ccc2nccc(SC(C)(C)C(=O)O)c2c1 [Compound 19, 2-(6-(2-methoxyphenyl)-quinolin-4-ylthio)-2-methylpropanoic acid] | –
21 | COc1cccc(-c2ccc3nccc(SC(C)(C)C(=O)O)c3c2)c1 [Compound 20, 2-(6-(3-methoxyphenyl)-quinolin-4-ylthio)-2-methylpropanoic acid] | –
1900 | COc1ccc(-c2ccc3nccc(SC(C)(C)C(=O)O)c3c2)cc1 [Compound 21, 2-(6-(4-methoxyphenyl)quinolin-4-ylthio)-2-methylpropanoic acid] | –
159 | CC(C)(Sc1ccnc2ccc(Br)cc12)C(=O)O [Compound 22, 2-((6-bromoquinolin-4-yl)thio)-2-methylpropanoic Acid] | –
6000 | CCC(Sc1ccnc2ccc(Br)cc12)C(=O)O (stereo not drawn) [Compound 24, 2-(6-bromoquinolin-4-ylthio)butanoic acid] | –
812 | CC(C)(Sc1ccnc2ccc(-c3ccccc3F)cc12)C(=O)O [Compound 25, 2-(6-(2-fluorophenyl)-quinolin-4-ylthio)-2-methylpropanoic acid] | –
351 | CC(C)(Sc1ccnc2ccc(-c3cccc(F)c3)cc12)C(=O)O [Compound 28, 2-(6-(3-fluorophenyl)-quinolin-4-ylthio)-2-methylpropanoic acid] | –
4600 | CC(C)(Sc1ccnc2ccc(-c3ccc(C(F)(F)F)cc3)cc12)C(=O)O [Compound 34, 2-(6-(4-(trifluoromethyl)phenyl)quinolin-4-ylthio)-2-methylpropanoic acid] | –
325 | CC(C)(Sc1ccnc2ccc(-c3ccccc3C(F)(F)F)cc12)C(=O)O [Compound 37] | –
70.6 | CCC(CC)(Sc1ccnc2ccc(Br)cc12)C(=O)O [Compound 83, 2-(6-bromoquinolin-4-ylthio)-2-ethylbutanoic acid] | pIC50 (average of the multiple head-to-head comparison tests, Table 2, read-out: Average (IC50 of multiple determinations)): 7.15; pIC50 (single determinations of multiple head-to-head tests, Ref cpd 2 vs Cpd 83, read-out: Multiple determination data (IC50)): 7.37 and 6.93 and 7.05 and 7.03 and 7.25 and 7.24 and 7.41; inhibitory effect on uric acid transporter URAT1 (in words) (statement in the text on Table 1): better inhibitory activity against the uric acid transporter than compound 1
2400 | CC(C)(Sc1ccnc2ccccc12)C(=O)O [Compound 93, 2-(quinolin-4-ylthio)-2-methylpropanoic acid] | –
4300 | CC(C)C(Sc1ccnc2ccc(Br)cc12)C(=O)O (stereo not drawn) [Compound 94, 2-(6-bromoquinolin-4-ylthio)-3-methylbutanoic acid] | –
> 30000 | COc1cc2nccc(SC(C)(C)C(=O)O)c2cc1OC [Compound 95, 2-(6,7-dimethoxyquinolin-4-ylthio)-2-methylpropanoic acid] | –
772 | CC(C)(Sc1ccnc2ccc(C(F)(F)F)cc12)C(=O)O [Compound 96, 2-(6-trifluoromethylquinolin-4-ylthio)-2-methylpropanoic acid] | –
8140 | CC(C)(Sc1ccnc2ccc(-c3ccc(C#N)cc3)cc12)C(=O)O [Compound 100, 2-(6-(4-cyano-phenyl)-quinolin-4-ylthio)-2-methylpropanoic acid] | –
710 | CC(C)(Sc1ccnc2ccc(-c3cccc(OC(F)(F)F)c3)cc12)C(=O)O [Compound 101, 2-(6-(3-trifluoromethoxy-phenyl)-quinolin-4-ylthio)-2-methylpropanoic acid] | –
32 | CCOc1cccc(-c2ccc3nccc(SC(C)(C)C(=O)O)c3c2)c1 [Compound 102, 2-(6-(3-ethoxy-phenyl)-quinolin-4-ylthio)-2-methylpropanoic acid] | –
37 | CC(C)Oc1cccc(-c2ccc3nccc(SC(C)(C)C(=O)O)c3c2)c1 [Compound 103, 2-(6-(3-isopropoxy-phenyl)-quinolin-4-ylthio)-2-methylpropanoic acid] | –
238 | CC(C)(Sc1ccnc2ccc(-c3cccc(OC(F)F)c3)cc12)C(=O)O [Compound 104] | –
336 | CS(=O)(=O)NC(=O)C1(Sc2ccnc3ccc(Br)cc23)CCC1 [Compound 107, 1-(6-bromoquinolin-4-ylthio)-N-(methylsulfonyl)cyclobutyl-1-formamide] | –
523 | CCCC(CCC)(Sc1ccnc2ccc(-c3cccc(OCC)c3)cc12)C(=O)O [Compound 108, 2-(6-(3-ethoxy-phenyl)-quinolin-4-ylthio)-2-propylpentanoic acid] | –
722 | CCCC(CCC)(Sc1ccnc2ccc(-c3cccc(OC4CC4)c3)cc12)C(=O)O [Compound 109, 2-(6-(3-cyclopropyloxy-phenyl)-quinolin-4-ylthio)-2-propylpentanoic acid] | –
2860 | CCCC(CCC)(Sc1ccnc2ccc(-c3cccc(OC4CCC4)c3)cc12)C(=O)O [Compound 110, 2-(6-(3-cyclobutyloxy-phenyl)-quinolin-4-ylthio)-2-propylpentanoic acid] | –
267 | CCC(CC)(Sc1ccnc2ccc(-c3cccc(OC4CCC4)c3)cc12)C(=O)O [Compound 111, 2-(6-(3-cyclobutyloxy-phenyl)-quinolin-4-ylthio)-2-ethylbutanoic acid] | –
147 | CCC(CC)(Sc1ccnc2ccc(-c3cccc(OC4CC4)c3)cc12)C(=O)O [Compound 112, 2-(6-(3-cyclopropyloxy-phenyl)-quinolin-4-ylthio)-2-ethylbutanoic acid] | –
